# Assay results as given in publication PMC8811472, “Systematic In Vitro Evaluation of a Library of Approved and Pharmacologically Active Compounds for the Identification of Novel Candidate Drugs for KMT2A-Rearranged Leukemia” (Frontiers in Oncology, 2022).
# Legend:
# [1] = system: THP-1 and REH versus 2-Cl-ATP-sensitive KMT2A-r cells; test: Resazurin-based viability assays of nucleoside analogs in leukemia cell line panel; design: species or system human
# Procedure: (§1) The cytotoxicity of drugs was assessed through resazurin-based assays and the inhibitory concentration resulting in 50% reduction of cell survival relative to control (IC50) was calculated as previously described ([7]). In synergy studies, cells were exposed to a dilution series of compounds, as single agents or in combination, in resazurin-based assays (72 hours) as described ([8]–[10]). The occurrence of synergy was determined with the Bliss Independence model as previously described ([8]–[10]). Bliss Prediction curves indicated the predicted percentage viability of the cells when exposed to the combination of compounds if both compounds work additively together. Synergy was visualised as the presence of a lower cell viability upon combination of two compounds compared to the viability predicted based on the presence of an additive effect of the compounds (i.e., the viability curve of the combination runs below the Bliss Prediction curve). The percentage of apoptotic cells was assessed by annexin V and 7-Aminoactinomycin D (7-AAD) (BD Biosciences, Australia) flow cytometry as previously described ([7]).
# LNCaP cells = test: 72-hour resazurin-based cytotoxicity assay, LNCaP; format: cell-based, human; conditions: prostate carcinoma
# Procedure: (§2) All cell lines used in this study were mycoplasma-free and have been authenticated using STR profiling. Cells were cultured as previously described ([7], [8]). Characteristics of the leukemia cell lines used in this study are described in Supplementary Table 1 . Peripheral blood mononuclear cells from healthy donors were purchased from Australian Red Cross.
# as §1, with “The percentage of apoptotic cells was assessed by annexin V and 7-Aminoactinomycin D (7-AAD) (BD Biosciences, Australia) flow cytometry as previously described ([7]).” left out
# [2] = system: peripheral blood mononuclear cells from healthy donors; test: 72-hour resazurin-based viability assay, PBMC from healthy donors; format: cell-based, human; conditions: for IC50: PBMC, 72 h resazurin
# Procedure: as §2, §1
# PER-785 cells = test: 72-hour resazurin-based cytotoxicity assay, PER-785; format: cell-based, human; conditions: PER-785, KMT2A-r t(4;11), infant ALL
# Procedure: as §2
# as §1, with “The percentage of apoptotic cells was assessed by annexin V and 7-Aminoactinomycin D (7-AAD) (BD Biosciences, Australia) flow cytometry as previously described ([7]).” left out
# HEY cells = test: 72-hour resazurin-based cytotoxicity assay, HEY; format: cell-based, human; conditions: ovarian carcinoma
# Procedure: as §2
# as §1, with “The percentage of apoptotic cells was assessed by annexin V and 7-Aminoactinomycin D (7-AAD) (BD Biosciences, Australia) flow cytometry as previously described ([7]).” left out
# CEM cells = test: 72-hour resazurin-based cytotoxicity assay, CEM; design: species or system human; conditions: KMT2A-wt, childhood T-cell ALL
# Procedure: as §2, §1
# KOPN-8 cells = test: 72-hour resazurin-based cytotoxicity assay, KOPN-8; design: species or system human; conditions: KOPN-8, KMT2A-r t(11;19), infant pre-B cell ALL
# Procedure: as §2
# as §1, with “The percentage of apoptotic cells was assessed by annexin V and 7-Aminoactinomycin D (7-AAD) (BD Biosciences, Australia) flow cytometry as previously described ([7]).” left out
# REH cells = test: 72-hour resazurin-based cytotoxicity assay, REH; design: species or system human; conditions: KMT2A-wt, pre-B cell ALL
# Procedure: as §2, §1
# MOLM-13 cells = test: 72-hour resazurin-based cytotoxicity assay, MOLM-13; format: cell-based, human; conditions: MOLM-13, KMT2A-r t(9;11), AML
# Procedure: as §2, §1
# KELLY cells = test: 72-hour resazurin-based cytotoxicity assay, KELLY; format: cell-based, human; conditions: neuroblastoma
# Procedure: as §2
# as §1, with “The percentage of apoptotic cells was assessed by annexin V and 7-Aminoactinomycin D (7-AAD) (BD Biosciences, Australia) flow cytometry as previously described ([7]).” left out
# KMT2A-wt REH cells = test: Synergy study (Bliss Independence model), REH; format: cell-based, human; conditions: 72 h
# Procedure: as §1
# MCF-7 cells = test: 72-hour resazurin-based cytotoxicity assay, MCF-7; format: cell-based, human; conditions: MCF-7, breast adenocarcinoma
# Procedure: as §2
# as §1, with “The percentage of apoptotic cells was assessed by annexin V and 7-Aminoactinomycin D (7-AAD) (BD Biosciences, Australia) flow cytometry as previously described ([7]).” left out
# PER-485 cells [3] = test: Synergy study (Bliss Independence model), PER-485; format: cell-based, human; conditions: PER-485, 72 h
# Procedure: as §1
# [4] = Mouse liver microsomal stability assay; format: in vitro ADME; conditions: mouse liver microsomes
# Text: Compound half-life was estimated by mouse liver microsomal stability assays as described ([10]).
# WI-38 cells = test: 72-hour resazurin-based cytotoxicity assay, WI-38; format: cell-based, human; conditions: WI-38, non-malignant, normal lung
# Procedure: as §2
# as §1, with “The percentage of apoptotic cells was assessed by annexin V and 7-Aminoactinomycin D (7-AAD) (BD Biosciences, Australia) flow cytometry as previously described ([7]).” left out
# PER-485 cells [5] = test: 72-hour resazurin-based cytotoxicity assay, PER-485; format: cell-based, human; conditions: PER-485, KMT2A-r t(4;11), infant ALL derived
# Procedure: as §2, §1
# KP-MO-TS cells = test: 72-hour resazurin-based cytotoxicity assay, KP-MO-TS; format: cell-based, human; conditions: CALM-AF10, AML
# Procedure: as §2
# as §1, with “The percentage of apoptotic cells was assessed by annexin V and 7-Aminoactinomycin D (7-AAD) (BD Biosciences, Australia) flow cytometry as previously described ([7]).” left out
# PER-490 cells = test: 72-hour resazurin-based cytotoxicity assay, PER-490; format: cell-based, human; conditions: PER-490, KMT2A-r t(4;11), infant ALL
# Procedure: as §2
# as §1, with “The percentage of apoptotic cells was assessed by annexin V and 7-Aminoactinomycin D (7-AAD) (BD Biosciences, Australia) flow cytometry as previously described ([7]).” left out
# PER-703 cells = test: 72-hour resazurin-based cytotoxicity assay, PER-703; format: cell-based, human; conditions: PER-703, KMT2A-r t(1;11), infant ALL derived
# Procedure: as §2
# as §1, with “The percentage of apoptotic cells was assessed by annexin V and 7-Aminoactinomycin D (7-AAD) (BD Biosciences, Australia) flow cytometry as previously described ([7]).” left out
# U937 cells = test: 72-hour resazurin-based cytotoxicity assay, U937; format: cell-based, human; conditions: U937, CALM-AF10, AML
# Procedure: as §2
# as §1, with “The percentage of apoptotic cells was assessed by annexin V and 7-Aminoactinomycin D (7-AAD) (BD Biosciences, Australia) flow cytometry as previously described ([7]).” left out
# 27/87 cells = test: 72-hour resazurin-based cytotoxicity assay, 27/87; format: cell-based, human; conditions: 27/87, endometrioid ovarian cancer
# Procedure: as §2
# as §1, with “The percentage of apoptotic cells was assessed by annexin V and 7-Aminoactinomycin D (7-AAD) (BD Biosciences, Australia) flow cytometry as previously described ([7]).” left out
# THP-1 cells = test: 72-hour resazurin-based cytotoxicity assay, THP-1; format: cell-based, human; conditions: THP-1, KMT2A-r t(9;11), infant AML
# Procedure: as §2, §1
# PER-826 cells = test: 72-hour resazurin-based cytotoxicity assay, PER-826; format: cell-based, human; conditions: PER-826, KMT2A-r complex t(11;19), infant ALL
# Procedure: as §2
# as §1, with “The percentage of apoptotic cells was assessed by annexin V and 7-Aminoactinomycin D (7-AAD) (BD Biosciences, Australia) flow cytometry as previously described ([7]).” left out
# RS4;11 cells = test: 72-hour resazurin-based cytotoxicity assay, RS4;11; design: species or system human; conditions: RS4;11, KMT2A-r t(4;11), pre-B cell ALL
# Procedure: as §2, §1
# [6] = system: KMT2A-r cells (PER-485 and THP-1); test: Annexin V positive cells, KMT2A-r cells; format: cell-based, human; conditions: as early as 6 hours post-exposure; IC50 doses
# Procedure: as §1
# Jurkat cells = test: 72-hour resazurin-based cytotoxicity assay, Jurkat; design: species or system human; conditions: KMT2A-wt, childhood T-cell ALL
# Procedure: as §2, §1
# H460 cells = test: 72-hour resazurin-based cytotoxicity assay, H460; format: cell-based, human; conditions: H460, lung carcinoma
# Procedure: as §2
# as §1, with “The percentage of apoptotic cells was assessed by annexin V and 7-Aminoactinomycin D (7-AAD) (BD Biosciences, Australia) flow cytometry as previously described ([7]).” left out
# MOLM13 cells = test: Synergy study (Bliss Independence model), MOLM13; format: cell-based, human; conditions: MOLM13, 72 h
# Procedure: as §1
# [7] = system: NR5A1 target genes ENO1 and PKM; KMT2A target genes; test: qRT-PCR of gene expression after treatment; format: cell-based, human; conditions: three hours
# Procedure: Total RNA was isolated using a Qiagen RNeasy kit and cDNA synthesized using the iScript cDNA Synthesis Kit (BioRad). Quantitative PCR was run and analyzed on Applied Biosystem’s QuantStudio5 Real-Time PCR Detection System, using Taqman gene expression assays for genes NR5A1 (Hs00610436_m1), GUSB (Hs99999908_m1) and HPRT (Hs99999909_m1) Relative expressions were determined as previously described ([7]).
# MV4;11 cells = test: 72-hour resazurin-based cytotoxicity assay, MV4;11; format: cell-based, human; conditions: MV4;11, KMT2A-r t(4;11), childhood AML
# Procedure: as §2
# as §1, with “The percentage of apoptotic cells was assessed by annexin V and 7-Aminoactinomycin D (7-AAD) (BD Biosciences, Australia) flow cytometry as previously described ([7]).” left out
# SEMK2 cells = test: 72-hour resazurin-based cytotoxicity assay, SEMK2; design: species or system human; conditions: SEMK2, KMT2A-r t(4;11), pre-B cell childhood ALL
# Procedure: as §2, §1
# MRC-5 cells = test: 72-hour resazurin-based cytotoxicity assay, MRC-5; format: cell-based, human; conditions: MRC-5, non-malignant, normal lung
# Procedure: as §2, §1
# BE(2)C cells = test: 72-hour resazurin-based cytotoxicity assay, BE(2)C; format: cell-based, human; conditions: childhood neuroblastoma
# Procedure: as §2
# as §1, with “The percentage of apoptotic cells was assessed by annexin V and 7-Aminoactinomycin D (7-AAD) (BD Biosciences, Australia) flow cytometry as previously described ([7]).” left out
# [8] = system: cleavage of PARP and caspase-3; test: Western blot of apoptotic markers; format: cell-based, human; conditions: sensitive KMT2A-r leukemia cells, not in KMT2A-wt
# Procedure: Western blotting experiments were performed as previously described ([7]). Antibodies used are listed in Supplementary Table 2 . Actin was used as a loading control.
smiles,measurement,setting,value
Nc1nc(Cl)nc2c1ncn2[C@H]1C[C@H](O)[C@@H](CO)O1 [cladribine],response of 2-Cl-ATP-resistant cell lines THP-1 and REH compared with 2-Cl-ATP-sensitive KMT2A-r cells,[1],less responsive
CCOC(=O)C(C)Oc1cccc2c(=O)n(CC(=O)Nc3ccc4c(c3)OCCO4)ccc12 (stereo not drawn) [SID7969543],IC50,LNCaP cells,> 20 µM
same,IC50,[2]; Donor 1,> 20 µM
same,IC50,[2]; Donor 2,> 20 µM
same,IC50,[2]; Donor 3,> 20 µM
same,viability of peripheral blood mononuclear cells (PBMC),"[2]; healthy donors, doses that inhibit KMT2A-r leukemia cells",did not significantly impact the viability
same,IC50,PER-785 cells,5 µM
same,IC50,HEY cells,> 20 µM
same,IC50,CEM cells,> 20 µM
same,IC50,KOPN-8 cells,> 20 µM
same,IC50,REH cells,> 20 µM
same,IC50,MOLM-13 cells,1 µM
same,IC50,KELLY cells,> 20 µM
same,combination effect (Bliss),KMT2A-wt REH cells; with cytarabine,No synergy
same,combination effect (Bliss),KMT2A-wt REH cells; with daunorubicin,No synergy
same,combination effect (Bliss),KMT2A-wt REH cells; with etoposide,No synergy
same,IC50,MCF-7 cells,> 20 µM
same,combination effect (Bliss),PER-485 cells [3]; with cytarabine,synergy
same,combination effect (Bliss),PER-485 cells [3]; with daunorubicin,synergy
same,combination effect (Bliss),PER-485 cells [3]; with etoposide,synergy
same,combination effect (Bliss),PER-485 cells [3]; with mitoxantrone,additive
same,combination effect (Bliss),PER-485 cells [3]; with topotecan,additive
same,half-life in microsomal stability assays,[4],short half-life
same,IC50,WI-38 cells,> 20 µM
same,IC50,PER-485 cells [5],1.4 µM
same,IC50,KP-MO-TS cells,1.9 µM
same,IC50,PER-490 cells,1.9 µM
same,IC50,PER-703 cells,4.9 µM
same,IC50,U937 cells,1.9 µM
same,IC50,27/87 cells,> 20 µM
same,IC50,THP-1 cells,2.6 µM
same,IC50,PER-826 cells,> 20 µM
same,IC50,RS4;11 cells,> 20 µM
same,percentage of annexin V-positive KMT2A-r cells,[6],significantly increased
same,IC50,Jurkat cells,> 20 µM
same,IC50,H460 cells,> 20 µM
same,combination effect (Bliss),MOLM13 cells; with cytarabine,synergy
same,combination effect (Bliss),MOLM13 cells; with daunorubicin,synergy
same,combination effect (Bliss),MOLM13 cells; with etoposide,additive
same,combination effect (Bliss),MOLM13 cells; with mitoxantrone,additive
same,combination effect (Bliss),MOLM13 cells; with topotecan,additive
same,"expression of genes not regulated by NR5A1 (HOXA9, HOXA10, MEIS1, MYB)",[7]; KMT2A-r cell lines,remained unchanged
same,expression of NR5A1 target genes ENO1 and PKM,"[7]; sensitive KMT2A-r cell lines, before induction of apoptosis",significantly decreased
same,IC50,MV4;11 cells,2.5 µM
same,IC50,SEMK2 cells,> 20 µM
same,IC50,MRC-5 cells,> 20 µM
same,IC50,BE(2)C cells,> 20 µM
same,cleavage of PARP and caspase-3,[8],increased cleavage
